Data: the supplement of paper PMC10307832

Columns and labels:
Assay in all cases: relative viability (nuclei count vs DMSO), 5 days (fraction); higher = more cells survive
[1] = compound: C1=CC2=NC=CN=C2C=C1/C=C/3\C(=O)NC(=O)S3 + COc1cccc2cc(-c3nc([C@H]4CC[C@H](C(=O)O)CC4)n4ncnc(N)c34)[nH]c12 [OSI-027] (partner 0.5 µM)
Method in brief: (§1)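 Each reported value is a median over duplicate plates. It expresses relative viability: treated-well nuclei count divided by vehicle-well nuclei count. Lung cancer cell lines in 1536-well plates were dosed by pin tool a day after seeding, alone with one drug or with a fixed anchor-drug dose plus five library-drug doses (not always all listed) in √10 steps, and nuclei were counted after 5 days.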

[2] = compound: C1=CC2=NC=CN=C2C=C1/C=C/3\C(=O)NC(=O)S3 + CS(=O)(=O)N1CCN(Cc2cc3nc(-c4cccc5[nH]ncc45)nc(N4CCOCC4)c3s2)CC1 [Pictilisib] (partner 1 µM)
Method in brief: as §1

BGJ398 + Lapatinib = compound: CCN1CCN(c2ccc(Nc3cc(N(C)C(=O)Nc4c(Cl)c(OC)cc(OC)c4Cl)ncn3)cc2)CC1 [BGJ398] + CS(=O)(=O)CCNCc1ccc(-c2ccc3ncnc(Nc4ccc(OCc5cccc(F)c5)c(Cl)c4)c3c2)o1 [Lapatinib] (partner 2 µM)
Method in brief: as §1

BGJ398 + Dasatinib = compound: CCN1CCN(c2ccc(Nc3cc(N(C)C(=O)Nc4c(Cl)c(OC)cc(OC)c4Cl)ncn3)cc2)CC1 [BGJ398] + Cc1nc(Nc2ncc(C(=O)Nc3c(C)cccc3Cl)s2)cc(N2CCN(CCO)CC2)n1 [Dasatinib] (partner 0.075 µM)
Method in brief: as §1

| Cell Line | relative viability ([1]; first compound 0.02 µM) | relative viability ([1]; first compound 0.06325 µM) | relative viability ([1]; first compound 0.2 µM) | relative viability ([1]; first compound 0.6325 µM) | relative viability ([1]; first compound 2 µM) | relative viability ([2]; first compound 0.02 µM) | relative viability ([2]; first compound 0.06325 µM) | relative viability ([2]; first compound 0.2 µM) | relative viability ([2]; first compound 0.6325 µM) | relative viability ([2]; first compound 2 µM) | relative viability (BGJ398 + Lapatinib; first compound 0.01 µM) | relative viability (BGJ398 + Lapatinib; first compound 0.03162 µM) | relative viability (BGJ398 + Lapatinib; first compound 0.1 µM) | relative viability (BGJ398 + Lapatinib; first compound 0.3162 µM) | relative viability (BGJ398 + Lapatinib; first compound 1 µM) | relative viability (BGJ398 + Dasatinib; first compound 0.01 µM) | relative viability (BGJ398 + Dasatinib; first compound 0.03162 µM) | relative viability (BGJ398 + Dasatinib; first compound 0.1 µM) | relative viability (BGJ398 + Dasatinib; first compound 0.3162 µM) | relative viability (BGJ398 + Dasatinib; first compound 1 µM) |
| --- | --- | --- | --- | --- | --- | --- | --- | --- | --- | --- | --- | --- | --- | --- | --- | --- | --- | --- | --- | --- |
| NCI-H838 | 0.448 | 0.437 | 0.438 | 0.399 | 0.226 | 0.395 | 0.446 | 0.429 | 0.369 | 0.322 | 0.755 | 0.867 | 0.914 | 0.623 | 0.413 | 0.278 | 0.337 | 0.28 | 0.257 | 0.225 |
| HARA | 0.482 | 0.396 | 0.586 | 0.43 | 0.195 | 0.44 | 0.485 | 0.365 | 0.348 | 0.31 | 0.67 | 0.531 | 0.472 | 0.362 | 0.217 | 0.26 | 0.196 | 0.227 | 0.232 | 0.151 |
| NCI-H2087 | 0.42 | 0.523 | 0.615 | 0.574 | 0.37 | 0.77 | 1.11 | 0.913 | 0.798 | 0.995 | 0.951 | 0.975 | 1.09 | 1.17 | 0.885 | 0.824 | 0.898 | 0.808 | 0.801 | 0.871 |
| NCI-H1437 | 0.941 | 0.995 | 0.922 | 0.784 | 0.197 | 0.441 | 0.482 | 0.434 | 0.347 | 0.317 | 0.829 | 0.762 | 0.905 | 0.729 | 0.644 | 0.484 | 0.444 | 0.373 | 0.42 | 0.424 |
| NCI-H1792 | 0.722 | 0.65 | 0.728 | 0.666 | 0.294 | 0.26 | 0.16 | 0.341 | 0.214 | 0.296 | 0.928 | 0.874 | 0.999 | 0.909 | 0.756 | 0.644 | 0.783 | 0.741 | 0.497 | 0.343 |
| NCI-H650 | 0.519 | 0.601 | 0.621 | 0.495 | 0.269 | 0.816 | 0.829 | 0.917 | 0.868 | 0.783 | 0.809 | 0.906 | 0.837 | 0.841 | 0.597 | 0.414 | 0.515 | 0.526 | 0.45 | 0.401 |
| COR-L23 | 0.781 | 0.898 | 0.873 | 0.74 | 0.497 | 0.784 | 1.01 | 0.78 | 0.717 | 0.453 | 0.887 | 0.903 | 1.15 | 0.992 | 0.908 | 0.474 | 0.527 | 0.571 | 0.464 | 0.456 |
| COR-L 105 | 0.743 | 0.669 | 0.729 | 0.623 | 0.435 | 0.396 | 0.435 | 0.377 | 0.398 | 0.337 | 0.379 | 0.303 | 0.329 | 0.386 | 0.382 | 0.275 | 0.279 | 0.371 | 0.307 | 0.276 |
| LK-2 | 0.225 | 0.23 | 0.201 | 0.184 | 0.147 | 0.678 | 0.587 | 0.596 | 0.497 | 0.392 | 0.887 | 0.754 | 0.488 | 0.352 | 0.26 | 0.286 | 0.248 | 0.163 | 0.203 | 0.179 |
| 201T | 0.664 | 0.682 | 0.714 | 0.671 | 0.23 | 0.606 | 0.799 | 0.712 | 0.666 | 0.573 | 1.14 | 1.02 | 0.997 | 1.02 | 0.697 | 0.582 | 0.557 | 0.5 | 0.566 | 0.514 |
| NCI-H596 | 0.749 | 0.542 | 0.875 | 0.677 | 0.532 | 0.465 | 0.384 | 0.394 | 0.419 | 0.377 | 1.16 | 0.937 | 0.974 | 0.824 | 0.496 | 0.515 | 0.49 | 0.576 | 0.506 | 0.474 |
| H3255 | 0.519 | 0.592 | 0.526 | 0.627 | 0.473 | 0.537 | 0.55 | 0.464 | 0.503 | 0.426 | 0.288 | – | 0.238 | 0.241 | 0.219 | 0.399 | – | 0.41 | 0.274 | 0.353 |
| NCI-H647 | 0.531 | 0.84 | 0.633 | 0.532 | 0.515 | 0.546 | 0.483 | 0.624 | 0.368 | 0.271 | 1.03 | 1.11 | 1.21 | 0.949 | 1.06 | 0.164 | 0.188 | 0.178 | 0.178 | 0.0946 |
| NCI-H2023 | 0.423 | 0.346 | 0.478 | 0.326 | 0.161 | 0.236 | 0.27 | 0.26 | 0.223 | 0.16 | 0.766 | 0.872 | 0.743 | 0.894 | 0.742 | 0.517 | 0.537 | 0.582 | 0.489 | 0.438 |
| NCI-H23 | 0.518 | 0.58 | 0.661 | 0.618 | 0.27 | 0.396 | 0.688 | 0.557 | 0.517 | 0.504 | 1.02 | 1.06 | 1.3 | 0.99 | 1.07 | 0.776 | 0.834 | 0.844 | 0.792 | 0.748 |
| NCI-H1944 | 0.412 | 0.395 | 0.427 | 0.385 | 0.258 | 0.284 | 0.349 | 0.367 | 0.319 | 0.297 | 0.784 | 0.813 | 0.84 | 0.78 | 0.603 | 0.166 | 0.21 | 0.23 | 0.198 | 0.203 |
